Results as given in patent US12612389B2, “Benzofuran-based N-acylhydrazone derivative and pharmaceutical composition comprising same” (KOREA RESEARCH INSTITUTE OF BIOSCIENCE AND BIOTECHNOLOGY, priority 2019, dated 2026).

How the values were obtained:
786-O = assay: Anti-proliferative activity in other cancer cell lines (MTT); type: cell-based; conditions: Homo sapiens, 786-0, 96 h, Kidney, 4 days
Protocol: (§1) HeLa cells (American Type Culture Collection: ATCC, USA), a human cervical cancer cell line, were seeded in a 96-well plate at 3×10^3 cells/well, and the cells were then treated with compounds of Examples or Comparative Example according to the present invention and grown for 2 days. Then, MTT (3-(4,5-dimethylthiazol-2-yl)-2,5-diphenyltetrazolium bromide) reagent was added at 10 μL/well. After 2 hours, absorbance was measured at “OD 450” and statistical values were obtained using Prism™6 program. The data shown in Table below are mean values of results obtained by repeating the analysis twice.
(§2) Specifically, various cancer cell lines were cultured in a microtiter plate (1-3×10^3 cells/well), treated with the compound of Example 4 according to the present invention, and cultured for 4 days. Cytotoxicity was tested by MTT assay in the same manner as in Experimental Example 1-1, and IC50 was obtained by a log-dose response curve. The data shown in Table below are mean values of results obtained by repeating the analysis three times.

A431 = assay: as above; type: cell-based; conditions: Homo sapiens, A-431, 96 h, Skin, 4 days
Protocol: as §1, §2

DU145 = assay: as above; type: cell-based; conditions: Homo sapiens, DU-145, 96 h, Prostate, 4 days
Protocol: as §1, §2

MDA-MB-468 = assay: as above; type: cell-based; conditions: Homo sapiens, 96 h, Breast, 4 days
Protocol: as §1, §2

MOLT4 = assay: as above; type: cell-based; conditions: Homo sapiens, MOLT-4, 96 h, Marrow (leukemia), 4 days
Protocol: as §1, §2

NCI-H125 = assay: as above; type: cell-based; conditions: Homo sapiens, 96 h, Lung, 4 days
Protocol: as §1, §2

NCI-H522 = assay: as above; type: cell-based; conditions: Homo sapiens, 96 h, Lung, 4 days
Protocol: as §1, §2

PC3 = assay: as above; type: cell-based; conditions: Homo sapiens, PC-3, 96 h, Prostate, 4 days
Protocol: as §1, §2

SNU 484 = assay: as above; type: cell-based; conditions: 96 h, Stomach, 4 days
Protocol: as §1, §2

U-2-OS = assay: as above; type: cell-based; conditions: Homo sapiens, U2OS, 96 h, Bone, 4 days
Protocol: as §1, §2

MEF (mouse) = assay: Cytotoxicity in normal cells (MTT); type: cell-based; conditions: 96 h, Normal cell, 4 days
HDF (human) = assay: Cytotoxicity in normal cells (MTT); type: cell-based; conditions: 96 h, Normal cell, 4 days
K562 = assay: Anti-proliferative activity test in cancer cells exhibiting multidrug resistance (MTT), parent line; type: cell-based; conditions: Homo sapiens, 96 h, 4 days
Protocol: (§3) HeLa cells (American Type Culture Collection: ATCC, USA), a human cervical cancer cell line, were seeded in a 96-well plate at 3×10^3 cells/well, and the cells were then treated with compounds of Examples or Comparative Example according to the present invention and grown for 2 days. Then, MTT (3-(4,5-dimethylthiazol-2-yl)-2,5-diphenyltetrazolium bromide) reagent was added at 10 μL/well. […] The data shown in Table below are mean values of results obtained by repeating the analysis twice. Specifically, K562 and MCF7 (Bio Evaluation Center, Korea Research Institute of Bioscience and Biotechnology, Korea) and multidrug-resistant cell lines of each of these cell lines, i.e., K562/ADR and MCF7/ADR (Bio Evaluation Center, Korea Research Institute of Bioscience and Biotechnology, Korea), were cultured on microtiter plates (1-3×10^3 cells/well). […] The data shown in Table below are mean values of results obtained by repeating the analysis three times.

MCF7 = assay: as above; type: cell-based; conditions: Homo sapiens, 96 h, 4 days
Protocol: as §3

K562/ADR = assay: Anti-proliferative activity test in cancer cells exhibiting multidrug resistance (MTT); type: cell-based
Protocol: as §3

MCF7/ADR = assay: as above; type: cell-based
Protocol: as §3

HeLa CCL2 cell line = assay: Effect test on cell cycle progression (propidium iodine, FACS); type: cell-based, human
HeLa CCL2 cells [1] = assay: Wound healing assay; type: cell-based, human; conditions: up to 100 nM, FIGS. 6A and 6B
Protocol: HeLa CCL2 cells were cultured in 6 wells at 100%, wounded with a yellow tip, and treated with 50 nM and 100 nM of the compound of Example 4. In order to observe the effect of the drug, the degree of cell migration was compared and observed by recording the state of the cells before treatment as images, and comparing the cell state before drug treatment with the state of the cells at 24, 36, and 48 hours post the drug treatment. The concentration of the compound of Example 4 treated with the cells was determined by performing MTT assay.

HeLa CCL2 cells [2] = assay: In vitro invasion assay (trans well); type: cell-based, human; conditions: 10 nM, 50 nM, 100 nM, 250 nM, 16 hours, FIGS. 7A and 7B
Protocol: In addition, in order to confirm the efficacy of inhibiting cell migration again, an invasion assay was performed. A trans well chamber for a 24-well plate was prepared, and HeLa CCL2 cells at a density of 5×10^4 were put into the upper chamber, treated with 10 nM, 50 nM, 100 nM, and 250 nM of the compound of Example 4, and cultured. Then, after 16 hours, the migrated cells were identified and the number thereof was measured through cell staining.

[3] = set-up: species or system ICR mice; conditions: mouse, in vivo
Protocol: The experimental apparatus was constructed similarly to that used in the paper described by Reyes-Mendez et al. (2018), and was composed of a black acrylic fence (floor area of […] and wall height of 40 cm). The floor surface was divided into 25 squares each having a size of 10×10 cm. For this experiment, mice were placed on the center of the floor and spontaneous activities thereof were recorded for 7 minutes from the top. After the experiment, the experimental apparatus was thoroughly washed with 30% ethanol. Three observers, unaware whether the drug was treated or not, analyzed the first 5 minutes of recorded video to count the number of squares the mouse passed, and add up the time during which the mouse stayed without moving, and the number of times the mouse was groomed or shaken, and the like. Based on the contents analyzed above, the time during which the mouse stayed in the central zone, speed, and total moving distance were calculated. A case where the two-tailed probability value was less than 0.05 (p<0.05) was considered statistically significant.
No statistically significant experimental groups were found as results of open-field experiments in mice.

Work on `CCOCCn1c(Cl)c(/C=N/NC(=O)c2cc3cc(C)ccc3o2)c2ccccc21` [Example 4, (E)-N′-[(2-chloro-1-(2-ethoxyethyl)-1H-indol-3-yl]methylene}-5-methylbenzofuran-2-carbohydrazide] yielded an IC50 (786-O) of 130 ± 50 nM, an IC50 (A431) of 220 ± 17 nM and an IC50 (DU145) of 490 ± 90 nM. The IC50 (MDA-MB-468) was 690 ± 30 nM, the IC50 (MOLT4) was 300 ± 10 nM and the IC50 (NCI-H125) was 370 ± 200 nM. For the same compound, the IC50 (NCI-H522) was 370 ± 130 nM, the IC50 (PC3) was 710 ± 180 nM and the IC50 (SNU 484) was 350 ± 70 nM. The IC50 (U-2-OS) was 420 ± 60 nM, the IC50 (MEF (mouse)) was 4010 ± 4580 nM and the IC50 (HDF (human)) was 27000 ± 7890 nM. The IC50 (K562) was 350 nM, the IC50 (MCF7) was 822 nM and the IC50 (K562/ADR; Homo sapiens, 96 h, K562/ADR (multidrug-resistant), 4 days, MTT) was 201 nM. For the same compound, the “Resistance Factor” value (K562/ADR; ratio IC50 K562/ADR to IC50 K562) was 0.57, the IC50 (MCF7/ADR; Homo sapiens, NCI/ADR-RES, 96 h, MCF7/ADR (multidrug-resistant), 4 days, MTT) was 332 nM and the “Resistance Factor” value (MCF7/ADR; ratio IC50 MCF7/ADR to IC50 MCF7) was 0.40. For the same compound, the “number of cells in G2/M phase as a percentage” value (HeLa CCL2 cell line; 0.2 μM, FACS) was 82.36%, the “cells stopped in the mitotic phase” value (HeLa CCL2 cell line; 16 hours post treatment) was no less than 80% and the “Effect (μM): concentration at which cells were collected in the mitotic phase” value (HeLa CCL2 cell line; FACS) was 0.2 µM. The IC50 (HeLa CCL2 cell line; Homo sapiens, as stated in text on Table 5) was 200 nM, the “effect on cell growth” value (HeLa CCL2 cells [1]) was “did not have a significant effect on cell growth” and the “cancer metastasis inhibitory effect (migrated cells)” value (HeLa CCL2 cells [2]) was “excellent cancer metastasis inhibitory effect”. The “effect on behavior of mice in open field (time in center zone, speed, total moving distance)” value [3] was “did not affect the behavior of mice in all groups”.
